Test results reported in ChEMBL document CHEMBL5143734, “Seco-Lupane Triterpene Derivatives Induce Ferroptosis through GPX4/ACSL4 Axis and Target Cyclin D1 to Block the Cell Cycle” (J Med Chem, 2022).

What was measured:
Format in all cases: functional, cell-based
MCF7 = experiment: Cytotoxicity against human MCF7 cells assessed as reduction in cell viability by CCK-8 assay
HepG2 = experiment: Cytotoxicity against human HepG2 cells assessed as reduction in cell viability by CCK-8 assay
A549 = experiment: Cytotoxicity against human A549 cells assessed as reduction in cell viability by CCK-8 assay
PANC-1 = experiment: Cytotoxicity against human PANC-1 cells assessed as reduction in cell viability by CCK-8 assay
PC-3M = experiment: Cytotoxicity against human PC-3M cells assessed as reduction in cell viability by CCK-8 assay

SMILES	IC50 (MCF7)	IC50 (HepG2)	IC50 (A549)	IC50 (PANC-1)	IC50 (PC-3M)
C=C(C)[C@@H]1CC[C@]2(C(=O)OCCCCCn3ccnc3C)CC[C@]3(C)[C@H](C[C@H]4OC(=O)C[C@@H](O)[C@]5(C)[C@@H]4[C@@]3(C)CC[C@H]5C(=C)C)[C@@H]12	46 µM	8.89 µM	15.9 µM	14.2 µM	12.4 µM
C=C(C)[C@@H]1CC[C@]2(C(=O)OCCCCn3ccnc3)CC[C@]3(C)[C@H](C[C@H]4OC(=O)C[C@@H](O)[C@]5(C)[C@@H]4[C@@]3(C)CC[C@H]5C(=C)C)[C@@H]12	84.4 µM	20.9 µM	32.7 µM	50.1 µM	28.2 µM
C=C(C)[C@@H]1CC[C@]2(C(=O)OCCCCCCCCCCn3ccnc3)CC[C@]3(C)[C@H](C[C@H]4OC(=O)C[C@@H](O)[C@]5(C)[C@@H]4[C@@]3(C)CC[C@H]5C(=C)C)[C@@H]12	44.9 µM	4.23 µM	17.2 µM	11.3 µM	11.8 µM
C=C(C)[C@@H]1CC[C@]2(C(=O)OCCCCCn3cnc(C)c3)CC[C@]3(C)[C@H](C[C@@H](O)[C@@H]4[C@@]5(C)C(CC(=O)OC)OC(C)(C)C5CC[C@]43C)[C@@H]12 (stereo not given in full)	60.8 µM	14.1 µM	28.5 µM	33.2 µM	30.1 µM
C=C(C)[C@@H]1CC[C@]2(C(=O)OCCCCn3ccnc3C)CC[C@]3(C)[C@H](C[C@H]4OC(=O)C[C@@H](O)[C@]5(C)[C@@H]4[C@@]3(C)CC[C@H]5C(=C)C)[C@@H]12	77.6 µM	27.8 µM	48.4 µM	56.5 µM	30 µM
C=C(C)[C@@H]1CC[C@]2(C(=O)OCCCCn3cnc(C)c3)CC[C@]3(C)[C@H](C[C@H]4OC(=O)C[C@@H](O)[C@]5(C)[C@@H]4[C@@]3(C)CC[C@H]5C(=C)C)[C@@H]12	45.3 µM	16 µM	20 µM	29.2 µM	15.5 µM
C=C(C)[C@@H]1CC[C@]2(C(=O)OCCCCCCn3ccnc3)CC[C@]3(C)[C@H](C[C@@H](O)[C@@H]4[C@@]5(C)C(CC(=O)OC)OC(C)(C)C5CC[C@]43C)[C@@H]12 (stereo not given in full)	45.5 µM	15.8 µM	26.1 µM	25.9 µM	19.7 µM
